Reference: patent publication US8986667B2, “Cosmetic composition with skin tightening effect” (LVMH Recherche, priority 2001, dated 2015)

Tested on: human skin
Assay: Kinetics of penetration of caffeine through thawed human skin mounted on Franz cells
Type: in vitro ADME
Settings: receptor liquid
Excerpt: This study is made, in vitro, on human skin, which is kept beforehand by freezing, with the aim of evaluating the influence of the mixture according to the invention on the penetration and the distribution of caffeine within the skin beds. The occlusive properties of a gel according to the invention lead the research of an eventual patch effect. This study is made in comparison with a Carbopol gel.
The principle of the study is based on the evaluation of the diffusion of an active principle through the thawed human skin which is mounted on Franz cells.
These cells are constituted of two glass elements which delimit an upper partition and a lower partition, and they have an exposed surface area of […]. The skin is placed between these two elements, stratum corneum to the top. The active principle deposited on the skin crosses it and is collected in the lower partition, dissolved in a solution which is known as the receptor solution and which is constituted of a phosphate buffer+Na nitride (0.1%) mixture. […]
The kinetics of penetration, in μg/cm^2 per unit time, is expressed as a function of the interval of confidence, the IC95%, wherein the residual standard deviation is calculated by the ANOVA method over the whole of the tests. […]

## Cn1c(=O)c2c(ncn2C)n(C)c1=O [caffeine]
  maximum concentration of caffeine collected during the study: less than 23 μg/mL
